# Reference: patent US5627173A, “Phosphonoacetic acid derivatives and their use for treating degenerative joint disorders” (Hoechst Aktiengesellschaft, priority 1995, dated 1997)
# Columns and labels:
# matrix metalloproteases = test: Inhibition of matrix metalloproteases (MMP from rabbit synoviocytes HIG-82, fluorescent substrate); type: biochemical
# Experimental: After confluent cell growth, the MMP expression was induced in the serum-free 3F12 HAM medium by adding 0.3 μmol/l phorbol 12-myristate 13-acetate. The supernatant was removed after incubating at 37° C. for 20 hours.
# Activation of the MMP: The supernatant was activated with trypsin (5 μg/ml). After 15 minutes at 37° C., the activation was stopped by adding 1 mmol/l phenylmethylsulfonyl fluoride (PMSF) and incubating for a further 10 minutes. The total volume of the mixture was 210 μl.
# The test substance was added in the stated concentration (see table). […] The reaction was stopped after 30 minutes by adding 10 mmol/l EDTA. The total-volume of the mixture was 320 μl . The parameters measured were the fluorescence intensities at […]. In order to take account of the possible intrinsic fluorescence of the test substances, the fluorescence intensities from parallel measurements without substrate were subtracted from the measurements with substrate. All the steps took place at 20° C.
# rat liver microsomes = test: Inhibition of microsomal lipid peroxidation; type: biochemical; settings: 37° C., 10 minutes
# Experimental: Obtaining rat liver microsomes: All steps were carried out at 0° C. The liver from a rat was thoroughly rinsed with 0.9% NaCl solution to remove all the hemoglobin. The liver wascut into pieces and then treated in a Potter in 10 mM Tris/HCl pH 7.4; 250 mM sucrose (10 ml of buffer/g of liver). The first centrifugation was at 600 x g for 55 minutes to remove cell detritus. The supernatant was then centrifuged at 12000 x g for 10 minutes and was adjusted with solid CaCI2 (117.6 mg/100 ml) to a concentration of 8 mM. A microsome pellet was obtained by centrifugation at 25000 x g (15 minutes). This pellet was ohomogenized in the same volume of buffer (10 mM Tris/BCI pH 7.4; 150 mMKCl) and again centrifuged at 25000 x g for 15 minutes.
# Peroxidation by rat liver microsomes: A test mixture consisted of 20 μl of microsomes (100 mg/ml), see above, dissolved in a buffer (250 mM Tris/HCI pB 6.6; 750 mMKCl), 10 iL1 of 50 mM MgCI2, 10 μl of 200 mM isocitric acid, 10 μl of 4 mM NADP (3.028 mg/ml in water), 10 μl of 25 mM niacinamide, 10 μl of isocitrate dehydrogenase (Boehringer, diluted 1:100) and 20 μl of water or test substance. The reaction was started with 10 μl of 0.25 mM FeSO4. […] The malonaldehyde which was formed was converted by adding 500 μl of 0.67 percent thiobarbituric acid and incubating at 90° C. for 30 min into a pink-colored compound which was measured in a photometer at 532 nm. […]
# interleukin-1β = test: Inhibition of release of interleukin-1β from human mononuclear cells; type: cell-based; settings: 10 .parallel.mol/l (so in the source), IL-1β, LPS-stimulated, 20 to 22 hours
# Experimental: Obtaining mononuclear cells from human blood: 10 ml of human blood stabilized with 1 ml of 3.8 percent sodium citrate solution were diluted with 10 ml of PM16 (Serra, Heidelberg), and an underlayer of 15 ml of Lymphoprep (Dr. Molter GmbH, Heidelberg) was introduced. The samples were centrifuged at 400 x g (Minifuge 2 Heraeus, Osterode) at room temperature for 40 minutes. The mononuclear cells were visible as a white ring at the Lymphoprep/plasma boundary. This ring was cautiously removed with a syringe, diluted with the same volume of PM16 and centrifuged at 400 x g for 10 minutes. The precipitate was washed with ^~ 10 ml of RPMI1640 (+300 mg/I L-glutamine, Gibco, Eggenstein). After the cells had been suspended in ^~ 1 ml of RPMI1640 (+300 mg/I L-glutamine, +25 mM HEPES, +100 μg/ml streptomycin, +100 μg/ml penicillin), the cell density was determined with a JT Coulter Counter (Coulter Diagnostics) and adjusted to 5.10^6 /ml. 90% of the resulting cells were lymphocytes and 10% were monocytes.
# Inhibition of release of interleukin-1β: 230 μl of mononuclear cells were incubated with 10 μl of test substance (10 μM in dimethyl sulfoxide (DMSO)/water=1/10) and 10 μl of a lipopolysaccharide solution (500 μg dissolved in 1 ml of DMSO and diluted 1/10 with water before starting the test, from Salmonella abortus equi, (Sigma, Deisenhofen) at 37° C., 5% CO2 for 20 to 22 hours. The samples were cooled to 0° C. in an ice bath and centrifuged in a Sigma centrifuge (2 minutes; 2000 revolutions per minute (rpm)). Aliquots of the supernatant were determined using a commercially available ELISA 5(Biermann, Bad Nauheim).
# All active substances were tested at a concentration of 10 .parallel.mol/l. IL-1β release was tested in each case.
# [1] = system: isolated guinea pig trachea; test: Antagonism of KCl-induced contraction of the isolated guinea pig trachea; settings: Cavia porcellus; agonist KCl; read-out: Anticontractile effect (trachea), concentration range needed to bring about a dilatation corresponding to the ED50 range
# From the text: (§1) The compounds according to the invention are used as antagonists of the contraction of various parts of organs, in this case the isolated guinea pig trachea. The agonists used were KCl, PGF2a, calcium ionophore A23187 and substance P:
# Products with a non-specific effect generally show a spasmolytic effect with respect to all agonists. KCI is representative here of non-specific, receptor-independent contraction because KCl-induced contractions are produced predominantly physically, that is to say by increasing the K+ concentration in the outside medium, and change the resting potential of the cell.
# (§2) The guinea pigs were sacrificed by lethal anesthesia with laughing gas. The trachea was dissected out over its entire length and cut into 15 individual cartilage rings. In each case five rings were connected together to form a chain and fixed in an organ bath under a preload of 3 g. After an equilibration period of 45 minutes, a contraction was induced with the agonist. Cumulative addition of the antagonist (test product) took place at the plateau 5 of the maximum. Evaluation took place as % change in strength based on the maximum contraction. The test was carried out at 37° C., and the physiological nutrient solution used was a modified Krebs-Henseleit solution through which 95% by volume 02 and 5% by volume CO2 was bubbled.
# (§3) Test animals: Albino guinea pigs (102), weight: 200 to 300 g, male or female
# (§4) Composition of the organ bath (nutrient solution):
# (§5) Vehicle: Double-distilled water, ethanol or isopropanol; Administration: into the organ bath Number of administrations: cumulative, single doses for SP
# [2] = system: isolated guinea pig trachea; test: Antagonism of PGF2α-induced contraction of the isolated guinea pig trachea; settings: Cavia porcellus; agonist PGF2α; read-out: Anticontractile effect (trachea), concentration range needed to bring about a dilatation corresponding to the ED50 range
# From the text: as §1
# Inhibition of contractions induced by this cyclooxygenase product is possible only by competitive antagonism at the receptor or of the downstream signal pathway.
# as §2, §3, §4, §5
# [3] = system: isolated guinea pig trachea; test: Antagonism of calcium ionophore A23187-induced contraction of the isolated guinea pig trachea; settings: Cavia porcellus; agonist Ca ionophore A23187; read-out: Anticontractile effect (trachea), concentration range needed to bring about a dilatation corresponding to the ED50 range
# From the text: as §1
# c) Calcium ionophore A23187 (Calbiochem, Bad Soden) brings about, due to increased uptake of calcium ions, an activation of all calcium-dependent signal cascades in the cell.
# as §2, §3, §4, §5
# [4] = system: isolated guinea pig trachea; test: Antagonism of substance P-induced contraction of the isolated guinea pig trachea; settings: Cavia porcellus; agonist substance P; read-out: Anticontractile effect (trachea), concentration range needed to bring about a dilatation corresponding to the ED50 range
# From the text: as §1
# Antagonism is possible on the one hand by specific receptor antagonists, and on the other hand by inhibition of the downstream signal pathway.
# as §2, §3, §4, §5
# [5] = system: isolated strips of guinea pig lung; test: Antagonism of LTD4-induced contraction of isolated strips of guinea pig lung; settings: Cavia porcellus; agonist LTD4; read-out: Anticontractile effect (lung), concentration range corresponding to the IC50 value
# From the text: (§6) The test was based on the same principle as the test indicated in Pharmacological Test 5; however, strips of lung were used in this case.
# (§7) The guinea pig was sacrificed under anesthesia with laughing gas. The entire lung tract was cut out starting from the trachea. The lobes of the lungs were cut in circular fashion to produce strips about 3 mm wide. The strips of the upper lobes were divided up in order to obtain a total of six strips of approximately equal size. The strips were suspended in the organ baths under a preload of 4 g. Modified Krebs-Henseleit solutions were used as nutrient solution. When platelet activating factor (PAF) was used as agonist, the composition of this solution corresponded to that for the agonist SP in Pharmacological Test 5; a Krebs-Henseleit solution as in the case of the agonist KCI (Pharm. Test 5) was used for the agonist LTD4. 95% by volume 02, 5% by volume CO2 was bubbled through the bath, and the bath temperature was 37° C. The test is carried out by a therapeutic/cumulative method with dose levels of 1, 3, 6 and 10 μg/ml.
# (§8) The test animals, organ bath, vehicle, mode of administration corresponded to that stated for Pharmacological Test 5.
# [6] = system: isolated strips of guinea pig lung; test: Antagonism of PAF-induced contraction of isolated strips of guinea pig lung; settings: Cavia porcellus; agonist PAF; read-out: Anticontractile effect (lung), concentration range corresponding to the IC50 value
# From the text: as §6, §7, §8
# RAW 264.7 cells [7] = test: Release of tumor necrosis factor α from RAW 264.7 cells; type: cell-based; settings: Mus musculus, RAW264.7, LPS, read-out: inhibition of TNFα formation compared with an untreated control
# Experimental: (§9) Culture medium: DMEM+10% FCS+penicillin/streptomycin (50 U/SO μg/ml)
# (§10) Culture conditions: 37° C., 10% CO2
# (§11) Culture dishes: 24-well dishes
# (§12) In each case 10^6 cells/ml/well were incubated for 24 hours (h)
# (§13) Addition of 10 μl of test substance (=100 μM in the test, dissolved in double-distilled water)
# Addition of 50 μl of lipopolysaccharide (LPS) from E. coli (=10 pg/ml in the test, dissolved in culture medium) […]
# Tumor necrosis factor α was determined using a Factortest X mouse TNFα ELISA kit from Genzyme (R(1sselsheim, Geromany), Order no. 80-2802-00.
# RAW 264.7 cells [8] = test: Release of substance P from RAW 264.7 cells; type: cell-based; settings: Mus musculus, RAW264.7, stimulated by 50 ng of LPS for 4 hours, read-out: inhibition of substance P production
# Experimental: as §9, §10, §11, §12, §13
# Release of substance P took place as described for TNFα, but the cells were stimulated by 50 ng of LPS for 4 hours. Substance P was determined using a substance P RIA test kit from Peninsula Laboratories (Belmont, USA) Test no. RIK-7451.
# phosphodiesterase III = test: Inhibition of phosphodiesterase III activity; type: biochemical; settings: 100 μM
# Experimental: The test was carried out with the phosphodiesterase of Boehringer Mannheim (Mannheim, Germany), Order no. 108 243 by the method of T. SAEKI, I. SAITO, Biochem. Pharm. 46, No. 5, […], pages 833-839.
# Wistar-Lewis rats = test: Adjuvant arthritis; type: in vivo; settings: 12.6 mg/kg intraperitoneal, twice a day for 18 days
# Experimental: The investigations were carried out as described in EP 50 42 740.
Compound,"Inhibition of MMP, Inhibition (%) (matrix metalloproteases; 10 μM)","Inhibition of MMP, Inhibition (%) (matrix metalloproteases; 30 μM)","Inhibition of MMP, Inhibition (%) (matrix metalloproteases; 100 μM)",IC50 (rat liver microsomes) [nM],inhibition at 10 µM (interleukin-1β) [%],EC50 [1] [µg/mL],EC50 [2] [µg/mL],EC50 [3] [µg/mL],EC50 [4] [µg/mL],IC50 [5] [µg/mL],IC50 [6] [µg/mL],inhibition at 100 µM (RAW 264.7 cells [7]; incubation for 2.5 hours) [%],inhibition at 100 µM (RAW 264.7 cells [8]) [%],inhibition of enzyme activity (phosphodiesterase III) (phosphodiesterase III) [%],inhibition of the increase in the paw volume compared with an untreated control group (Wistar-Lewis rats) [%],inhibition at 100 µM (RAW 264.7 cells [7]; incubation for 4 h) [%]
"CCOC(=O)C(=Cc1ccc(O)c(O)c1)P(=O)(OCC)OCC [Compound 47, Ethyl 2-(diethoxyphosphinyl)-3-(3,4-dihydroxyphenyl) propenoate]",13,24,55,2100,80,–,–,–,–,–,–,–,–,–,–,–
"CCOP(=O)(OCC)/C(C#N)=C\c1ccc(OC)c(OC)c1 [Compound 37, Z- and E-2-(diethoxyphosphinyl)-3-(3,4-dimethoxyphenyl) acrylonitrile]",–,–,–,–,–,~10,~3,~1,~3,0.1 to 0.3,1 to 3,55,100,39,–,–
"CCOP(=O)(OCC)/C(C#N)=C/c1ccc(OC)c(OC)c1 [Compound 38, Z- and E-2-(diethoxyphosphinyl)-3-(3,4-dimethoxyphenyl) acrylonitrile]",–,–,–,–,–,> 10,1 to 3,~3,3 to 10,~1,< 0.1,–,100,–,98,16
